Experimental data published in ChEMBL document CHEMBL1129440, “The use of topographical constraints in receptor mapping: investigation of the topographical requirements of the tryptophan 30 residue for receptor binding of Asp-Tyr-D-Phe-Gly-Trp-(N-Me)Nle-Asp-Phe-NH2 (SNF 9007), a cholecystokinin (26-33) analogue that binds to both CCK-B and delta-opioid …” (J Med Chem, 1996).

Tests used:
[1] = molecular target: T1, Cholecystokinin receptor type A (Cavia porcellus, UniProt Q63931); experiment: Binding affinity towards Cholecystokinin type A receptor was determined in guinea pig pancreatic membranes using [125I]-BH-CCK-8 as radioligand; format: cell membranes
T1 sequence (Q63931 whole entry): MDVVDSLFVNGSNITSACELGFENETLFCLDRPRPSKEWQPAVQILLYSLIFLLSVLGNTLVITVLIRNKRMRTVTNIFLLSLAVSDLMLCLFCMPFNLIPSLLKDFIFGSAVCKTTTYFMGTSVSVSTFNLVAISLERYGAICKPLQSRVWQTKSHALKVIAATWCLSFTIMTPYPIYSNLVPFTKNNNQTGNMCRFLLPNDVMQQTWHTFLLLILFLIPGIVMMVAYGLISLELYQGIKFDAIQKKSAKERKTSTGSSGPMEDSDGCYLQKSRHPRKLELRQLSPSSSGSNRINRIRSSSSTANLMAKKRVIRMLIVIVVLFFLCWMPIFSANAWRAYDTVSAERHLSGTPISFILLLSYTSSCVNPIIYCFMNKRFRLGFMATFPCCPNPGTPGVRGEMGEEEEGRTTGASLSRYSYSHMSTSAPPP

Mu-type opioid receptor = Mu-type opioid receptor (Cavia porcellus, UniProt P97266); experiment: Binding affinity towards Opioid receptor mu 1 was determined in guinea pig whole brain using [3H]CTOP radioligand
Chain of Mu-type opioid receptor (P97266 whole entry): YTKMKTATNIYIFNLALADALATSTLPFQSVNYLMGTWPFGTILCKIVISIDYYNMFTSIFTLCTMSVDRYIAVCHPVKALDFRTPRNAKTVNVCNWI

Row | Structure (SMILES) | IC50 ([1]; read-out: IC50) [µM] | IC50 (Mu-type opioid receptor) [µM] | IC50 [1]
1 | CCCC[C@@H](C(=O)N[C@@H](CC(=O)O)C(=O)N[C@@H](Cc1ccccc1)C(N)=O)N(C)C(=O)[C@H](NC(=O)CNC(=O)[C@@H](Cc1ccccc1)NC(=O)[C@H](Cc1ccc(O)cc1)NC(=O)[C@@H](N)CC(=O)O)[C@@H](C)c1c[nH]c2ccccc12 | 8.6 | > 30 | 
2 | CCCC[C@@H](C(=O)N[C@@H](CC(=O)O)C(=O)N[C@@H](Cc1ccccc1)C(N)=O)N(C)C(=O)[C@H](NC(=O)CNC(=O)[C@@H](Cc1ccccc1)NC(=O)[C@H](Cc1ccc(O)cc1)NC(=O)[C@@H](N)CC(=O)O)[C@H](C)c1c[nH]c2ccccc12 | 8.6 | > 30 | 
3 | CCCC[C@@H](C(=O)N[C@@H](CC(=O)O)C(=O)N[C@@H](Cc1ccccc1)C(N)=O)N(C)C(=O)[C@@H](NC(=O)CNC(=O)[C@@H](Cc1ccccc1)NC(=O)[C@H](Cc1ccc(O)cc1)NC(=O)[C@@H](N)CC(=O)O)[C@H](C)c1c[nH]c2ccccc12 | 1 | 3.05 | 
4 | CCCC[C@@H](C(=O)N[C@@H](CC(=O)O)C(=O)N[C@@H](Cc1ccccc1)C(N)=O)N(C)C(=O)[C@H](Cc1c[nH]c2ccccc12)NC(=O)CNC(=O)[C@@H](Cc1ccccc1)NC(=O)[C@H](Cc1ccc(O)cc1)NC(=O)[C@@H](N)CC(=O)O | > 12 | 0.7 | 
5 | CC1(C)SSC(C)(C)[C@H](C(=O)O)NC(=O)C(Cc2ccccc2)NC(=O)CNC(=O)C1NC(=O)[C@@H](N)Cc1ccc(O)cc1 (single isomer, unassigned) |  |  | Not Active
6 | CCCC[C@@H](C(=O)N[C@@H](CC(=O)O)C(=O)N[C@@H](Cc1ccccc1)C(N)=O)N(C)C(=O)[C@@H](NC(=O)CNC(=O)[C@@H](Cc1ccccc1)NC(=O)[C@H](Cc1ccc(O)cc1)NC(=O)[C@@H](N)CC(=O)O)[C@@H](C)c1c[nH]c2ccccc12 | > 1.2 | 6.8 | 
